Experimental data reported in US9809598B2 (Merck Patent GmbH, priority 2014, dated 2017).

Columns and labels:
[1] = target: T1, PARP-1 (Homo sapiens, UniProt P09874); test: PARP-1 autoparsylation assay (HTRF); assay type: biochemical; conditions: His-tagged Parp-1, autoparsylation HTRF
T1 construct: purchased Enzo Life Sciences GmbH, Lörrach, Germany
From the text: Description of the PARP1 Assay
Biochemical Activity Testing of PARP-1: Autoparsylation Assay
The autoparsylation assay is run in two steps: the enzymatic reaction in which His-tagged Parp-1 transfers biotinylated ADP-ribose/ADP-ribose to itself from biotinylated NAD/NAD as co-substrate and the detection reaction where a time resolved FRET between cryptate labelled anti-His antibody bound to the His tag of the enzyme and Xlent® labelled-streptavidin bound the biotin-parsylation residue is analysed. The autoparsylation activity is detectable directly via the increase in HTRF signal.
The autoparsylation assay is performed as 384-well HTRF® (Cisbio, Codolet, France) assay format in Greiner low volume nb 384-well microtiter plates. […] The ratio of the emission signals is determined. The full value used is the inhibitor-free reaction. The pharmacological zero value used is Olaparib (LClabs, Woburn, US) in a final concentration of 1 μM. The inhibitory values (IC50) are determined using either the program Symyx Assay Explorer® or Condosseo® from GeneData.

[2] = target: T2, TNKS1 (Homo sapiens, UniProt O95271); test: TNKS1 activity ELISA (autoparsylation assay); assay type: biochemical; conditions: GST-tagged Tnks-1 (1023-1327 aa)
T2 construct: GST-tagged Tnks-1 (1023-1327 aa, prepared in-house); made in house
T2 sequence (O95271 1023-1327): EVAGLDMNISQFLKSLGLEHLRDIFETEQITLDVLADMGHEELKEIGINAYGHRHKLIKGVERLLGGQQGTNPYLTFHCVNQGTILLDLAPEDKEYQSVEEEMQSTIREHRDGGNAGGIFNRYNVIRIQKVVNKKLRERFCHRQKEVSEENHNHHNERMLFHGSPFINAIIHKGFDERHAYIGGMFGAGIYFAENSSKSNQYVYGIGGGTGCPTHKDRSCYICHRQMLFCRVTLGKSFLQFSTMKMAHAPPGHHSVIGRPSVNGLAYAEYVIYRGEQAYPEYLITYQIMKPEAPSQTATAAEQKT
How it was run: (§1)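 Autoparsylation ELISA: biotinylated NAD serves as co-substrate for plate-bound GST-TNKS1/TNKS2, incubated with test compounds. Readout is HRP luminescence after streptavidin-HRP binding, referenced to the no-inhibitor reaction, from which IC50 values are derived.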

[3] = target: T3, TNKS2 (Homo sapiens, UniProt Q9H2K2); test: TNKS2 activity ELISA (autoparsylation assay); assay type: biochemical; conditions: GST-tagged Tnks-2 (873-1166 aa); read-out: IC50 [M] TNKS2 ELISA
T3 construct: GST-tagged Tnks-2 (873-1166 aa, prepared in-house); made in house
T3 sequence (Q9H2K2 873-1166): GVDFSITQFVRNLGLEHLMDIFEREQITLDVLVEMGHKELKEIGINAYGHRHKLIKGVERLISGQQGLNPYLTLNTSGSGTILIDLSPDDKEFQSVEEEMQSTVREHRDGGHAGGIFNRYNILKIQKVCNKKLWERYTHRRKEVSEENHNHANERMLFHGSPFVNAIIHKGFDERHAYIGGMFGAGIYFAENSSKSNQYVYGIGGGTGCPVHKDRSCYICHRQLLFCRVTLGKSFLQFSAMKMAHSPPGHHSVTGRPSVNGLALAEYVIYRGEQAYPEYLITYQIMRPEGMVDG
How it was run: as §1

[4] = system: Tankyrases; conditions: read-out: EC50 [M] TNKS cellular assay; DLD1 cells, 24 hours, Axin2 increase
Experimental: Measurement of Cellular Inhibition of Tankyrase
Cells of the colon carcinoma cell line DLD1 are plated in 96 well plates with 1.5×10^4 cells per well. Next day, cells are treated with a serial dilution of test compound in seven steps as triplicates with a final DMSO concentration of 0.3%. […] The amount of isolated Axin2 protein is determined in a Luminex^200 machine (Luminex Corporation) according to the manufacturer's instruction by counting 100 events per well. […] As controls cells are treated with solvent alone (neutral control) and with a Tankyrase reference inhibitor IWR-2 (3E−06 M) which refers as control for maximum increase of Axin2. For analysis, the obtained data are normalized against the untreated solvent control and fitted for determination of the EC50 values using the Assay Explorer software (Accelrys).

T1 sequence (P09874 whole entry): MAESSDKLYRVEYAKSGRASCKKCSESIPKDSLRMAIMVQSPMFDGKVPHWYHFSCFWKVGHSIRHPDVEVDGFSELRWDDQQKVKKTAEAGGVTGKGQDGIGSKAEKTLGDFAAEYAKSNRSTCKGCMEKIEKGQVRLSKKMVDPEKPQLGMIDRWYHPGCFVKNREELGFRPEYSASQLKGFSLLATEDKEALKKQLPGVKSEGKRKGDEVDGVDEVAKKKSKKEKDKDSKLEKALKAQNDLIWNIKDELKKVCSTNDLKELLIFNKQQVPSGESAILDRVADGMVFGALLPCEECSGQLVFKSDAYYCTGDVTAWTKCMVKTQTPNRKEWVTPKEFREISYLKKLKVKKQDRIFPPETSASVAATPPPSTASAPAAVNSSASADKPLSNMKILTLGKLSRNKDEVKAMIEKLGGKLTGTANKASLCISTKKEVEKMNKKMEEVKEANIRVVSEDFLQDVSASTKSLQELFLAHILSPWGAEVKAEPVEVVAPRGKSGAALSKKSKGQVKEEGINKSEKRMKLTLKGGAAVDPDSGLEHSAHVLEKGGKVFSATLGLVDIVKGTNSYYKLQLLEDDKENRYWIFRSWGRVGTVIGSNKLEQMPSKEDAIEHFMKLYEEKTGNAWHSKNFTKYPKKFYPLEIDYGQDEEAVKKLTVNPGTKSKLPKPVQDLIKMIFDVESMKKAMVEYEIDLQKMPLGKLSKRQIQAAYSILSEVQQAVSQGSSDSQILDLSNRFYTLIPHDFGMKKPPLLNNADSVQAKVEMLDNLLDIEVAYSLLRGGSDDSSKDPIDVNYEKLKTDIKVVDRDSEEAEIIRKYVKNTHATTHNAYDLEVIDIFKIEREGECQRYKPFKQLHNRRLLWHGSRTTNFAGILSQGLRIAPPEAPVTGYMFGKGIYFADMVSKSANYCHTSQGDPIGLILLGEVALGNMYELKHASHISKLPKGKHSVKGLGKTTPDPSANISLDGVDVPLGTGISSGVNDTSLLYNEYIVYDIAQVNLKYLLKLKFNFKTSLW

For `Cn1ccc2c(=O)[nH]c(CCCC(=O)N3CCC(c4cnc(N)c(C#N)c4)CC3)nc21` [Compound C182, 6-Amino-1′-[4-(7-methyl-4-oxo-4,7-dihydro-3H-pyrrolo[2,3-d]pyrimidin-2-yl)-butyryl]-1′,2′,3′,4′,5′,6′-hexahydro-[3,4′]bipyridinyl-5-carbonitrile], the IC50 [1] was 1500 nM, the IC50 [2] was 1.3 nM and the IC50 [3] was 6.5e-10 M. It also gave an EC50 [4] of 2.4e-07 M.
`Cn1ncc2c(=O)[nH]c(CCCC(=O)N3CCC(C(=O)c4ccc(Cl)cc4)CC3)nc21` [Compound C236, 6-{4-[4-(4-Chloro-benzoyl)-piperidin-1-yl]-4-oxo-butyl}-1-methyl-1,5-dihydro-pyrazolo[3,4-d]pyrimidin-4-one] was tested, and the IC50 [1] was 10000 nM, the IC50 [2] was 0.48 nM and the IC50 [3] was 2.4e-10 M. For the same compound, the EC50 [4] was 2.1e-08 M.
Work on `COc1ccc(C(=O)C2CCN(C(=O)CCCc3nc4c(c(=O)[nH]3)COCC4)CC2)cn1` [Compound C193, 2-{4-[4-(6-Methoxy-pyridine-3-carbonyl)-piperidin-1-yl]-4-oxo-butyl}-3,5,7,8-tetrahydro-pyrano[4,3-d]pyrimidin-4-one] yielded an IC50 [1] of 8000 nM, an IC50 [2] of 7.4 nM and an IC50 [3] of 2.6e-09 M. For the same compound, the EC50 [4] was 1e-07 M.
For `Cc1ccc2c(=O)[nH]c(CCCC(=O)N3CCC(c4nnc(-c5ccccc5)o4)CC3)nn12` [Compound C151, 7-Methyl-2-{4-oxo-4-[4-(5-phenyl-[1,3,4]oxadiazol-2-yl)-piperidin-1-yl]-butyl}-3H-pyrrolo[2,1-f][1,2,4]triazin-4-one], the IC50 [1] was 210 nM, the IC50 [2] was 1.4 nM and the IC50 [3] was 9.3e-10 M. It also gave an EC50 [4] of 1.9e-08 M.
`Cc1cc2c(=O)[nH]c(CCCC(=O)N3CCC(Oc4ccc(C#N)cc4)CC3)nn2c1` [Compound C163, 4-{1-[4-(6-Methyl-4-oxo-3,4-dihydro-pyrrolo[2,1-f][1,2,4]triazin-2-yl)-butyryl]-piperidin-4-yloxy}-benzonitrile] showed an IC50 [1] of 1300 nM, an IC50 [2] of 21 nM and an IC50 [3] of 2.5e-08 M. The EC50 [4] was 2e-07 M.
In the case of `Cc1csc2c(=O)[nH]c(CCCC(=O)N3CCC(C(=O)c4cnn(C)c4)CC3)nc12` [Compound C135, 7-Methyl-2-{4-[4-(1-methyl-1H-pyrazole-4-carbonyl)-piperidin-1-yl]-4-oxo-butyl}-3H-thieno[3,2-d]pyrimidin-4-one], the IC50 [1] is reported as 420 nM, the IC50 [2] is reported as 0.49 nM and the IC50 [3] is reported as 4.7e-10 M. The EC50 [4] was 3.9e-08 M.
With `COc1ccc(C(=O)C2CCN(C(=O)CCCc3nn4cc(C)cc4c(=O)[nH]3)CC2)cc1C` [Compound C165, 2-{4-[4-(4-Methoxy-3-methyl-benzoyl)-piperidin-1-yl]-4-oxo-butyl}-6-methyl-3H-pyrrolo[2,1-f][1,2,4]triazin-4-one] the IC50 [1] was 2100 nM, the IC50 [2] was 0.22 nM and the IC50 [3] was 2.2e-10 M. The EC50 [4] was 1.7e-09 M.
With `COc1ccc(C(=O)C2CCN(C(=O)CCCc3nn4cc(C)cc4c(=O)[nH]3)CC2)cc1F` [Compound C158, 2-{4-[4-(3-Fluoro-4-methoxy-benzoyl)-piperidin-1-yl]-4-oxo-butyl}-6-methyl-3H-pyrrolo[2,1-f][1,2,4]triazin-4-one] the IC50 [1] was 2100 nM, the IC50 [2] was 0.44 nM and the IC50 [3] was 9.2e-10 M. It also gave an EC50 [4] of 4.4e-09 M.
For `COc1ccc(C(=O)C2CCN(C(=O)CCCc3nn4cccc4c(=O)[nH]3)CC2)cc1` [Compound C36, 2-{4-[4-(4-Methoxy-benzoyl)-piperidin-1-yl]-4-oxo-butyl}-3H-pyrrolo[2,1-f][1,2,4]triazin-4-one], the IC50 [1] was 3500 nM, the IC50 [2] was 0.39 nM and the IC50 [3] was 2.8e-10 M. For the same compound, the EC50 [4] was 4.1e-09 M.
For `Cc1cc2c(=O)[nH]c(CCCC(=O)N3CCC(c4nnc(-c5ccccc5)o4)CC3)nn2c1` [Compound C162, 6-Methyl-2-{4-oxo-4-[4-(5-phenyl-[1,3,4]oxadiazol-2-yl)-piperidin-1-yl]-butyl}-3H-pyrrolo[2,1-f][1,2,4]triazin-4-one], the IC50 [1] was 1400 nM, the IC50 [2] was 20 nM and the IC50 [3] was 3.7e-08 M. For the same compound, the EC50 [4] was 5e-07 M.
`CCn1cc(C(=O)C2CCN(C(=O)CCCc3nc4c(cnn4C)c(=O)[nH]3)CC2)cn1` [Compound C213, 6-{4-[4-(1-Ethyl-1H-pyrazole-4-carbonyl)-piperidin-1-yl]-4-oxo-butyl}-1-methyl-1,5-dihydro-pyrazolo[3,4-d]pyrimidin-4-one] showed an IC50 [1] of 11000 nM, an IC50 [2] of 1.2 nM and an IC50 [3] of 5.2e-10 M. It also gave an EC50 [4] of 8.6e-08 M.
For `N#Cc1cc(C2CCN(C(=O)CCCc3nn4cccc4c(=O)[nH]3)CC2)cnc1N` [Compound C138, 6-Amino-1′-[4-(4-oxo-3,4-dihydro-pyrrolo[2,1-f][1,2,4]triazin-2-yl)-butyryl]-1′,2′,3′,4′,5′,6′-hexahydro-[3,4′]bipyridinyl-5-carbonitrile], the IC50 [1] was 3200 nM, the IC50 [2] was 2.2 nM and the IC50 [3] was 2.6e-09 M. For the same compound, the EC50 [4] was 5.2e-08 M.
Work on `Cc1cc2c(=O)[nH]c(CCCC(=O)N3CCC(C(=O)c4ccc(F)cc4)CC3)nn2c1` [Compound C164, 2-{4-[4-(4-Fluoro-benzoyl)-piperidin-1-yl]-4-oxo-butyl}-6-methyl-3H-pyrrolo[2,1-f][1,2,4]triazin-4-one] yielded an IC50 [1] of 2200 nM, an IC50 [2] of 0.79 nM and an IC50 [3] of 2.8e-09 M. For the same compound, the EC50 [4] was 2.5e-08 M.
With `COc1ccc(C(=O)C2CCN(C(=O)CCCc3nn4cc(F)cc4c(=O)[nH]3)CC2)cc1` [Compound C39, 6-Fluoro-2-{4-[4-(4-methoxy-benzoyl)-piperidin-1-yl]-4-oxo-butyl}-3H-pyrrolo[2,1-f][1,2,4]triazin-4-one] the IC50 [1] was 2100 nM, the IC50 [2] was 0.18 nM and the IC50 [3] was 3.7e-10 M. It also gave an EC50 [4] of 3.1e-09 M.
`COc1ccc(C(=O)C2CCN(C(=O)CCCc3cn4c(C)ncc4c(=O)[nH]3)CC2)cn1` [Compound C99, 6-{4-[4-(6-Methoxy-pyridine-3-carbonyl)-piperidin-1-yl]-4-oxo-butyl}-3-methyl-7H-imidazo[1,5-a]pyrazin-8-one] gave an IC50 [1] of 6700 nM, an IC50 [2] of 0.37 nM and an IC50 [3] of 1.1e-08 M. The EC50 [4] was 1.1e-08 M.
Compound `Cn1ccc2c(=O)[nH]c(CCCC(=O)N3CCC(c4cnc(N)c(-c5ncccn5)c4)CC3)nc21` [Compound C183, 2-[4-(6-Amino-5-pyrimidin-2-yl-3′,4′,5′,6′-tetrahydro-2′H-[3,4′]bipyridinyl-1′-yl)-4-oxo-butyl]-7-methyl-3,7-dihydro-pyrrolo[2,3-d]pyrimidin-4-one] has an IC50 [1] of 1600 nM, an IC50 [2] of 0.54 nM and an IC50 [3] of 2.9e-10 M. It also gave an EC50 [4] of 1e-08 M.
`COc1ccc(C(=O)C2CCN(C(=O)CCCc3nn4cc(C)cc4c(=O)[nH]3)CC2)cc1` [Compound C38, 2-{4-[4-(4-Methoxy-benzoyl)-piperidin-1-yl]-4-oxo-butyl}-6-methyl-3H-pyrrolo[2,1-f][1,2,4]triazin-4-one] was tested, and the IC50 [1] was 2400 nM, the IC50 [2] was 0.28 nM and the IC50 [3] was 1.1e-10 M. The EC50 [4] was 5.4e-09 M.
`Cc1csc2c(=O)[nH]c(CCCC(=O)N3CCC(Oc4ccc(C#N)cc4)CC3)nc12` [Compound C130, 4-{{1-[4-(7-Methyl-4-oxo-3H-thieno[3,2-d]pyrimidin-2-yl)butanoyl]-4-piperidyl}-oxy}benzonitrile] showed an IC50 [1] of 320 nM, an IC50 [2] of 50 nM and an IC50 [3] of 2.1e-08 M. It also gave an EC50 [4] of 3.3e-08 M.
With `Cc1cc2c(=O)[nH]c(CCCC(=O)N3CCC(c4cnc(N)c(-c5ncccn5)c4)CC3)nn2c1` [Compound C161, 2-[4-(6-Amino-5-pyrimidin-2-yl-3′,4′,5′,6′-tetrahydro-2′H-[3,4′]bipyridinyl-1′-yl)-4-oxo-butyl]-6-methyl-3H-pyrrolo[2,1-f][1,2,4]triazin-4-one] the IC50 [1] was 4300 nM, the IC50 [2] was 0.62 nM and the IC50 [3] was 2.9e-09 M. The EC50 [4] was 9.7e-09 M.
With `COc1ccc(C(=O)C2CCN(C(=O)CCCc3nc4c(C)csc4c(=O)[nH]3)CC2)cc1C` [Compound C132, 2-{4-[4-(4-Methoxy-3-methyl-benzoyl)-1-piperidyl]-4-oxo-butyl}-7-methyl-3H-thieno[3,2-d]pyrimidin-4-one] the IC50 [1] was 440 nM, the IC50 [2] was less than 0.1 nM and the IC50 [3] was 1.1e-10 M. It also gave an EC50 [4] of 7.7e-10 M.
In the case of `COc1ccc(C(=O)C2CCN(C(=O)CCCc3cn4c(C)ncc4c(=O)[nH]3)CC2)cc1` [Compound C33, 6-{4-[4-(4-Methoxy-benzoyl)-piperidin-1-yl]-4-oxo-butyl}-3-methyl-7H-imidazo[1,5-a]pyrazin-8-one], the IC50 [1] is reported as 5500 nM, the IC50 [2] is reported as 0.16 nM and the IC50 [3] is reported as 1.2e-10 M. The EC50 [4] was 1.5e-09 M.
For `COc1ccc(C(=O)C2CCN(C(=O)CCCc3cn4c(Cl)ccc4c(=O)[nH]3)CC2)cc1` [Compound C11, 6-Chloro-3-{4-[4-(4-methoxy-benzoyl)-piperidin-1-yl]-4-oxo-butyl}-2H-pyrrolo[1,2-a]pyrazin-1-one], the IC50 [1] was 2700 nM, the IC50 [2] was 0.14 nM and the IC50 [3] was 1.6e-10 M. For the same compound, the EC50 [4] was 9e-10 M.
`CCn1cc(C(=O)C2CCN(C(=O)CCCc3nn4c(C)ccc4c(=O)[nH]3)CC2)cn1` [Compound C222, 2-{4-[4-(1-Ethyl-1H-pyrazole-4-carbonyl)-piperidin-1-yl]-4-oxo-butyl}-7-methyl-3H-pyrrolo[2,1-f][1,2,4]triazin-4-one] gave an IC50 [1] of 1200 nM, an IC50 [2] of 0.24 nM and an IC50 [3] of 2.9e-10 M. For the same compound, the EC50 [4] was 2.6e-09 M.
